Laboratory results: patent publication US11597706B2, “Compounds and compositions for treating conditions associated with NLRP activity” (Novartis AG, priority 2016, dated 2023)

Each compound was assayed against T1, hNLRP3 (THP-1, IL-1β) (Homo sapiens, UniProt Q96P20) (assay: IL-1β production in PMA-differentiated THP-1 cells stimulated with gramicidin). Details: Table 2, gramicidin 5 μM, IL-1β readout.
T1 construct: THP-1 cells were purchased from the American Type Culture Collection; host or cells: THP-1 cells, PMA-differentiated, stimulated with gramicidin
Assay type: cell-based
Method: IL-1β Production in PMA-Differentiated THP-1 Cells Stimulated With Gramicidin.
Cell culture-THP-1 cells were purchased from the American Type Culture Collection and sub-cultured according to instructions from the supplier. Prior to experiments, cells were cultured in RPMI 1640 containing 10% heat inactivated FBS, penicillin (100 units/ml) and streptomycin (100 μg/ml), and maintained in log phase prior to experimental setup. Prior to the experiment THP-1 were treated with PMA (Phorbol 12-myristate 13-acetate) (10 μg/ml) for 24 hours. The day of the experiment the media was removed and attaching cells were treated with trypsin for 2 minutes, cells were then collected, washed with PBS (phosphate buffer saline), spin down, resuspended in 2% heat inactivated FBS with RPMI at a concentration of 1×10^6 cells/ml, and 100 μl was plated in a 96 well plate. Cells were incubated with compounds for 1 hours and then stimulated with Gramicidin (5 μM) (Enzo) for 2 hours. Cell free supernatant was collected and the production of IL-1β was evaluated by ELISA. Compounds were dissolved in dimethyl sulfoxide (DMSO) and added to the culture medium to achieve desired concentration (e.g. 100, 30, 10, 3, 1, 0.3 or 0.1 μM). A vehicle only control was run concurrently with each experiment. Final DMSO concentration was 1%.
THP-1 cells were purchased from the American Type Culture Collection and sub-cultured according to instructions from the supplier. Prior to experiments, cells were cultured in complete RPMI 1640 (containing 10% heat inactivated FBS, penicillin (100 units/ml) and streptomycin (100 μg/ml)), and maintained in log phase prior to experimental setup. Prior to the experiment THP-1 were treated with PMA (Phorbol 12-myristate 13-acetate) (20 ng/ml) for 16-18 hours. On the day of the experiment the media was removed and adherent cells were detached with trypsin for 5 minutes. Cells were then harvested, washed with complete RPMI 1640, spun down, resuspended in RPMI 1640 (containing 2% heat inactivated FBS, penicillin (100 units/ml) and streptomycin (100 μg/ml). The cells were plated in a 384-well plate at a density of 50,000 cells/well (final assay volume 50 μl). Compounds were dissolved in dimethyl sulfoxide (DMSO) and added to the culture medium to achieve desired concentration (e.g. 100, 33, 11, 3.7, 1.2, 0.41, 0.14, 0.046, 0.015, 0.0051, 0.0017 μM). Cells were incubated with compounds for 1 hour and then stimulated with gramicidin (5 μM) (Enzo) for 2 hours. Cell free supernatant was collected and the production of IL-1β was evaluated by HTRF (cisbio). A vehicle only control was run concurrently with each experiment. Final DMSO concentration was 0.38%.

T1 sequence (Q96P20 whole entry): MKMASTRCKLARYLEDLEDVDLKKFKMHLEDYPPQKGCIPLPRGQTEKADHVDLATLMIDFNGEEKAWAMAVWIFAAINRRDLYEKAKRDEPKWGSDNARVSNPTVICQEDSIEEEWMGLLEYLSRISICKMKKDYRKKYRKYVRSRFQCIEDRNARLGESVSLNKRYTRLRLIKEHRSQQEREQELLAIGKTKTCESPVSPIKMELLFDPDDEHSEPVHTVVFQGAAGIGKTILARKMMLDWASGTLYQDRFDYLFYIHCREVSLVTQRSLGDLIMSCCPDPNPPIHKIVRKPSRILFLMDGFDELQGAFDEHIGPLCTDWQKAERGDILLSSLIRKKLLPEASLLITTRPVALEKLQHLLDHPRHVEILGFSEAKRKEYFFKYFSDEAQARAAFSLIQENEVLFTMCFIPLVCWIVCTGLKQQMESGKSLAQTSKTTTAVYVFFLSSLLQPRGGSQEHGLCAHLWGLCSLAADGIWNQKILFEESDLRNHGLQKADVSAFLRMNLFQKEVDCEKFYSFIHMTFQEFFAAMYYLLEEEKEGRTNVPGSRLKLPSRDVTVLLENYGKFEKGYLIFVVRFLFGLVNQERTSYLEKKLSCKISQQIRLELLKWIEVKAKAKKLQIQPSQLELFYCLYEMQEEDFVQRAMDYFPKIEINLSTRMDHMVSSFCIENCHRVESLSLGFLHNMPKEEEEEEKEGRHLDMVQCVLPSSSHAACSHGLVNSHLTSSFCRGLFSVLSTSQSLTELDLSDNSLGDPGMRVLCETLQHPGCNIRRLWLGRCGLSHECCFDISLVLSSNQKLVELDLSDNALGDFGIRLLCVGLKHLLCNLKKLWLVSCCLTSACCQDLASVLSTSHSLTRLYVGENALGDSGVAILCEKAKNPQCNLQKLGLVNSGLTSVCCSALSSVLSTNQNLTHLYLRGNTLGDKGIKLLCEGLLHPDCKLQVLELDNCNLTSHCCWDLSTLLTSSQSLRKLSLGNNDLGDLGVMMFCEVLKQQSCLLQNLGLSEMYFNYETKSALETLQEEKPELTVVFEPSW

Row | SMILES | IC50 [µM]
1 | CC(C)c1ccc(F)c(C(C)C)c1NC(=O)NS(=O)(=O)c1cc(-c2ccncc2)cc(C(C)(C)O)c1 [Compound 159, N-(3-fluoro-2,6-diisopropylphenylcarbamoyl)-3-(2-hydroxypropan-2-yl)-5-(pyridin-4-yl)benzenesulfonamide] | 5 to 15
2 | CC(C)(O)c1ccc(S(=O)(=O)NC(=O)Nc2c3c(c(F)c4c2CCC4)CCC3)cc1 [Compound 160, N-(8-fluoro-1,2,3,5,6,7-hexahydro-sindacen-4-ylcarbamoyl)-4-(2-hydroxypropan-2-yl)benzenesulfonamide] | < 1
3 | CC(C)(O)c1ccc(S(=O)(=O)NC(=O)Nc2c3c(c(Cl)c4c2CCC4)CCC3)cc1 [Compound 161, N-(8-chloro-1,2,3,5,6,7-hexahydro-sindacen-4-ylcarbamoyl)-4-(2-hydroxypropan-2-yl)benzenesulfonamide] | < 1
4 | CC(C)c1cc(Cl)cc(C(C)C)c1NC(=O)NS(=O)(=O)c1ccc(C(C)(C)O)cc1 [Compound 162, N-(4-chloro-2,6-diisopropylphenylcarbamoyl)-4-(2-hydroxypropan-2-yl)benzenesulfonamide] | < 1
5 | CC(C)(O)c1ccc(S(=O)(=O)NC(=O)Nc2c3c(cc4c2CCC4)CCC3)cc1CO [Compound 163, N-(1,2,3,5,6,7-hexahydro-sindacen-4-ylcarbamoyl)-3-(hydroxymethyl)-4-(2-hydroxypropan-2-yl)benzenesulfonamide] | < 1
6 | CC(C)(O)c1ccc(S(=O)(=O)NC(=O)Nc2c3c(c(C#N)c4c2CCC4)CCC3)cc1 [Compound 164, N-(8-cyano-1,2,3,5,6,7-hexahydro-sindacen-4-ylcarbamoyl)-4-(2-hydroxypropan-2-yl)benzenesulfonamide] | < 1
7 | CC(C)c1cc(F)cc(C(C)C)c1NC(=O)NS(=O)(=O)c1ccc(C(C)(C)O)cc1 [Compound 165, N-(4-fluoro-2,6-diisopropylphenylcarbamoyl)-4-(2-hydroxypropan-2-yl)benzenesulfonamide] | < 1
8 | CC(C)(O)c1ccc(S(=O)(=O)NC(=O)Nc2c3c(cc4c2CCC4)CCC3)cn1 [Compound 166, N-(1,2,3,5,6,7-hexahydros-indacen-4-ylcarbamoyl)-6-(2-hydroxypropan-2-yl)pyridine-3-sulfonamide] | < 1
9 | CC(C)(O)c1ccc(S(=O)(=O)NC(=O)Nc2c3c(cc4c2CCC4)CCC3)cc1 [Compound 167, N-(1,2,3,5,6,7-hexahydros-indacen-4-ylcarbamoyl)-4-(2-hydroxypropan-2-yl)benzenesulfonamide] | < 1
10 | CC(C)c1cc(C#N)cc(C(C)C)c1NC(=O)NS(=O)(=O)c1ccc(C(C)(C)O)cc1 [Compound 168, N-(4-cyano-2,6-diisopropylphenylcarbamoyl)-4-(2-hydroxypropan-2-yl)benzenesulfonamide] | 1 to 5
11 | CC(C)c1cccc(C(C)C)c1NC(=O)NS(=O)(=O)c1ccc(C(C)(C)O)cc1 [Compound 169, N-(2,6-diisopropylphenylcarbamoyl)-4-(2-hydroxypropan-2-yl)benzenesulfonamide] | 1 to 5
12 | CC(C)c1ccc(F)c(C(C)C)c1NC(=O)NS(=O)(=O)c1ccc(C(C)(C)O)cc1 [Compound 170, N-(3-fluoro-2,6-diisopropylphenylcarbamoyl)-4-(2-hydroxypropan-2-yl)benzenesulfonamide] | 1 to 5
13 | COC(=O)c1ccc(F)c(S(=O)(=O)NC(=O)Nc2c(C(C)C)cc(Cl)cc2C(C)C)c1 [Compound 171, methyl 3-(N-(4-chloro-2,6-diisopropylphenylcarbamoyl)sulfamoyl)-4-fluorobenzoate] | 1 to 5
